Measured values published in patent publication US10988459B2 (priority 2015, dated 2021).

target: human RIP1 kinase domain (2-375) (Homo sapiens (Human), UniProt Q13546); experiment: biochemical; assay type: biochemical; settings: Table 5; apparent Ki (Morrison tight-binding fit); 50 nM RIP1 kinase domain, 50 uM ATP, 2 hours incubation; read-out: Ki
How it was run: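 Ki^app comes from Morrison tight-binding fits of fractional activity versus compound concentration. Activity was read as ADP production, via tracer displacement lowering fluorescence polarization (633 nm laser). Conditions: 2 h, 50 nM insect-cell-expressed enzyme, 50 uM ATP, 30 mM MgCl2, 1 mM DTT, 0.5% DMSO, pH 7.5 Hepes.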

Sequence of human RIP1 kinase domain (2-375) (Q13546 2-375): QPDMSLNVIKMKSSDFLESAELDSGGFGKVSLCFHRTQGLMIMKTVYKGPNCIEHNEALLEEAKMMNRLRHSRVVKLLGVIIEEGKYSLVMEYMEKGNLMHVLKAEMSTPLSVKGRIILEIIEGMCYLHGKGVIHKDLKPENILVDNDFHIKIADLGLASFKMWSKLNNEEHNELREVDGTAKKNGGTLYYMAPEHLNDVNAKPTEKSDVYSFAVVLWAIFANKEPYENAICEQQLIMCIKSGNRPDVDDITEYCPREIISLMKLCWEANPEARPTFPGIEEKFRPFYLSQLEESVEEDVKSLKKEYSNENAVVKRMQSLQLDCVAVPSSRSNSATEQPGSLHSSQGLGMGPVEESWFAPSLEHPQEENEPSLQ

Ki | SMILES
225 nM | COCCNCc1cc2n(n1)CCC(NC(=O)c1ncn(Cc3ccccc3)n1)C(=O)N2C (single isomer, unassigned) [Example 784]
70 nM | CN1C(=O)C(NC(=O)c2ncn(Cc3ccccc3)n2)CCn2nc(-c3ccn(C)n3)cc21 (racemic) [Example 777, 1-benzyl-N-(4-methyl-2-(1-methyl-1H-pyrazol-3-yl)-5-oxo-5,6,7,8-tetrahydro-4H-pyrazolo[1,5-a][1,3]diazepin-6-yl)-1H-1,2,4-triazole-3-carboxamide]
13 nM | Cc1cc2n(n1)CC[C@H](NC(=O)c1cc3c(-c4ccccc4)cccn3n1)C(=O)N2C [Example 714, (S)—N-(2,4-dimethyl-5-oxo-5,6,7,8-tetrahydro-4H-pyrazolo[1,5-a][1,3]diazepin-6-yl)-4-phenylpyrazolo[1,5-a]pyridine-2-carboxamide]
309 nM | CN1C(=O)[C@@H](NC(=O)c2nc3n(n2)CCNC3C(F)(F)F)COc2ccccc21 (stereo partly drawn) [Example 787, N-[(3S)-5-methyl-4-oxo-2,3-dihydro-1,5-benzoxazepin-3-yl]-8-(trifluoromethyl)-5,6,7,8-tetrahydro-[1,2,4]triazolo [1,5-a]pyrazine-2-carboxamide]

same assay, conditions: human RIP1 kinase domain (2-375), 50 uM ATP, 2 hours incubation, Transcreener ADP assay; read-out: RIP1 Ki

Ki | SMILES
120 nM | CN1C(=O)C(NC(=O)c2ncn(Cc3ccccc3)n2)CCn2nc(-c3ccccc3)cc21 (stereo not shown) [Example 208, 1-benzyl-N-(4-methyl-5-oxo-2-phenyl-5,6,7,8-tetrahydro-4H-pyrazolo[1,5-a][1,3]diazepin-6-yl)-1H-1,2,4-triazole-3-carboxamide]
19.5 nM | CC(C)n1ncc2cnc(C(=O)N[C@H]3COc4ccccc4N(C)C3=O)nc21 [Example 122, (S)-1-isopropyl-N-(5-methyl-4-oxo-2,3,4,5-tetrahydrobenzo[b][1,4]oxazepin-3-yl)-1H-pyrazolo[3,4-d]pyrimidine-6-carboxamide]
834 nM | CN1C(=O)[C@@H](NC(=O)c2cc3c(cn2)COC3(C)CC(F)(F)F)CCn2nccc21 (stereo partly drawn) [Example 106, 1-methyl-N—((S)-4-methyl-5-oxo-5,6,7,8-tetrahydro-4H-pyrazolo[1,5-a][1,3]diazepin-6-yl)-1-(2,2,2-trifluoroethyl)-1,3-dihydrofuro[3,4-c]pyridine-6-carboxamide]
8.9 nM | CN1C(=O)[C@@H](NC(=O)c2cc3c(cn2)CO[C@]3(C)CC(F)(F)F)COc2ccccc21 [Example 161, (R)-1-methyl-N-((S)-5-methyl-4-oxo-2,3,4,5-tetrahydrobenzo[b][1,4]oxazepin-3-yl)-1-(2,2,2-trifluoroethyl)-1,3-dihydrofuro[3,4-c]pyridine-6-carboxamide]
22.9 nM | Cc1cc2n(n1)CC[C@H](NC(=O)c1ncn(Cc3ccccc3)n1)C(=O)N2C [Example 172, (S)-1-benzyl-N-(2,4-dimethyl-5-oxo-5,6,7,8-tetrahydro-4H-pyrazolo[1,5-a][1,3]diazepin-6-yl)-1H-1,2,4-triazole-3-carboxamide]

same assay, conditions: human RIP1 kinase domain (2-375), Transcreener ADP assay, 50 uM ATP, 2 hours incubation; read-out: RIP1 Ki

Ki | SMILES
2560 nM | CN1C(=O)[C@H](NC(=O)c2ncn(Cc3ccc(F)cc3F)n2)CCn2nc(C3CC3)cc21 [Example 298, (R)—N-(2-cyclopropyl-4-methyl-5-oxo-5,6,7,8-tetrahydro-4H-pyrazolo[1,5-a][1,3]diazepin-6-yl)-1-(2,4-difluorobenzyl)-1H-1,2,4-triazole-3-carboxamide]
2200 nM | CN1C(=O)C(NC(=O)c2ncn(CC3CCOCC3)n2)CCn2nc(C3CC3)cc21 (stereo not shown) [Example 254, N-(2-cyclopropyl-4-methyl-5-oxo-5,6,7,8-tetrahydro-4H-pyrazolo[1,5-a][1,3]diazepin-6-yl)-1-((tetrahydro-2H-pyran-4-yl)methyl)-1H-1,2,4-triazole-3-carboxamide]
13 nM | CN1C(=O)[C@@H](NC(=O)c2ncn(Cc3cccc(F)c3F)n2)CCn2nc(C3CC3)cc21 [Example 331, (S)—N-(2-cyclopropyl-4-methyl-5-oxo-5,6,7,8-tetrahydro-4H-pyrazolo[1,5-a][1,3]diazepin-6-yl)-1-(2,3-difluorobenzyl)-1H-1,2,4-triazole-3-carboxamide]
5250 nM | CN1C(=O)[C@@H](NC(=O)c2ncn(Cc3cccc(F)c3F)n2)CCn2nc([C@H]3CC3(F)F)cc21 [Example 311, 1-(2,3-difluorobenzyl)-N—((S)-2-((R)-2,2-difluorocyclopropyl)-4-methyl-5-oxo-5,6,7,8-tetrahydro-4H-pyrazolo[1,5-a][1,3]diazepin-6-yl)-1H-1,2,4-triazole-3-carboxamide]
421 nM | CN1C(=O)C(NC(=O)c2ncn(CC3CCC(F)(F)CC3)n2)CCn2nc(C3CC3)cc21 (stereo not shown) [Example 255, N-(2-cyclopropyl-4-methyl-5-oxo-5,6,7,8-tetrahydro-4H-pyrazolo[1,5-a][1,3]diazepin-6-yl)-1-((4,4-difluorocyclohexyl)methyl)-1H-1,2,4-triazole-3-carboxamide]

same assay, conditions: tight-binding apparent inhibition constant; human RIP1 kinase domain (2-375) 50 nM, 50 uM ATP, 2 hours; read-out: Ki

SMILES | Ki
O=C(N[C@H]1CCc2cc(F)cc(F)c2NC1=O)c1nc2n(n1)CCO[C@@H]2c1ccccc1 [Example 639, (8R)-8-phenyl-N-[(3S)-7,9-difluoro-2-oxo-1,3,4,5-tetrahydro-1-benzazepin-3-yl]-6,8-dihydro-5H-[1,2,4]triazolo[5,1-c][1,4]oxazine-2-carboxamide] | 420 nM
O=C(N[C@H]1COc2cc(F)cc(F)c2NC1=O)c1nc2n(n1)CCO[C@H]2c1ccccc1 [Example 640, (8S)-8-phenyl-N-[(3S)-6,8-difluoro-4-oxo-3,5-dihydro-2H-1,5-benzoxazepin-3-yl]-6,8-dihydro-5H-[1,2,4]triazolo[5,1-c][1,4]oxazine-2-carboxamide] | 9.4 nM
CN1C(=O)[C@@H](NC(=O)c2ncc3c(n2)[C@@](C)(CC(F)(F)F)OC3)COc2ccccc21 (racemic) [Example 691, rac-(7R)-7-methyl-N-[rac-(3S)-5-methyl-4-oxo-2,3-dihydro-1,5-benzoxazepin-3-yl]-7-(2,2,2-trifluoroethyl)-5H-furo[3,4-d]pyrimidine-2-carboxamide] | 22.8 nM
CCc1cccc2nc(C(=O)N[C@H]3COc4ccccc4N(C)C3=O)nn12 [Example 378, (S)-5-ethyl-N-(5-methyl-4-oxo-2,3,4,5-tetrahydrobenzo[b][1,4]oxazepin-3-yl)-[1,2,4]triazolo[1,5-a]pyridine-2-carboxamide] | 6.68 nM
CCC[C@]1(C)OCc2cnc(C(=O)N[C@H]3COc4cc(F)cc(F)c4NC3=O)nc21 [Example 619, (7S)-7-methyl-7-propyl-N-[(3S)-6,8-difluoro-4-oxo-3,5-dihydro-2H-1,5-benzoxazepin-3-yl]-5H-furo[3,4-d]pyrimidine-2-carboxamide] | 180 nM
CCC[C@H]1CCCc2nc(C(=O)N[C@H]3COc4cc(C)cc(F)c4NC3=O)nn21 (single isomer, unassigned) [Example 439] | 6.62 nM

Now from value to compound:

Ki | SMILES
7.58 nM | CN1C(=O)[C@@H](NC(=O)c2ncn(Cc3ccc(Cl)cc3)n2)CCn2nc(C3CC3)cc21 (racemic) [Example 677, 1-[(4-chlorophenyl)methyl]-N-[rac-(6S)-2-cyclopropyl-4-methyl-5-oxo-7,8-dihydro-6H-pyrazolo[1,5-a][1,3]diazepin-6-yl]-1,2,4-triazole-3-carboxamide]
3100 nM | C[C@H](c1ccc(F)cc1)n1cnc(C(=O)N[C@H]2CCn3nc(C4CC4)cc3N(C)C2=O)n1 (racemic) [Example 676, N-[rac-(6S)-2-cyclopropyl-4-methyl-5-oxo-7,8-dihydro-6H-pyrazolo[1,5-a][1,3]diazepin-6-yl]-1-[rac-(1R)-1-(4-fluorophenypethyl]-1,2,4-triazole-3-carboxamide]
